Measurements as given in paper PMC8752837, “Structural basis of BAK activation in mitochondrial apoptosis initiation” (Nature Communications, 2022).
Positions count from the first letter of the chain named. Several values for one entry are separate records, joined by “and”; a condition that tells them apart may be missing. Equal values may be shown once.

Key:
D83A(s) BAK = molecular target: T1, D83A(s) BAK (Homo sapiens, UniProt Q16611, D83A); assay: Liposome permeabilization assay: BH3 peptide activation of D83A(s) BAK receptor; type: biochemical; settings: for liposome permeabilization by 50 nM D83A(s) BAK receptor: 50 nM mutant BAK, Suppl. Fig. 4f; for EC50: EC50 of liposome permeabilization by 200 nM D83A(s) BAK, 200 nM D83A(s) BAK, Suppl. Fig. 3e, 4e
T1 construct: C-terminus truncated recombinant human BAK containing C-terminal 6× histidine tag (MEAS-BAK); made in house; host or cells: E. coli T7 Express pLac I/Y
T1 sequence (Q16611 1-186 D83A limits assumed): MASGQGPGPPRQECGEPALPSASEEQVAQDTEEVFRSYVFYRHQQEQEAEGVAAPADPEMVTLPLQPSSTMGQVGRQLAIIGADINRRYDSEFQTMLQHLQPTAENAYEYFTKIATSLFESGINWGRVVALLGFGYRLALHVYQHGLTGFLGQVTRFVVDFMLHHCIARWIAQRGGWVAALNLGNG
Description: We performed liposome permeabilization assays as previously described[43]-[46]. […] We mixed the lipid film in ANTS/DPX solution by vortexing and sonication (~15 min) followed by extrusion through polycarbonate membrane of 2 μm pore size (Avanti Polar lipids) to generate homogenous large unilamellar vesicles (LUVs). We separated LUVs from free ANTS/DPX by S500 size exclusion chromatography and stored them at 4 °C in the dark. We prepared peptide and protein dilutions in 96-well black flat bottom plates (Costar) kept on ice. […] We quantified liposome permabilization by integrating area under curve (AUC) of normalized traces based on the Simpson's equation, and analyzed that data in Excel and GraphPad Prism. AUC measurements reflect the kinetic and extent of liposome permeabilization and provide quantitative means for comparison between different experimental conditions (e.g., BAK mutants with gross or partial variation in activity). Variability in permeabilization of different liposomes is common and our analyses compare among conditions investigated with the same liposomes. Although the absolute permeabilization values may differ, the trends for the same conditions are always very similar between different liposomes.

MEAS-BAK-His6 = molecular target: T2, MEAS-BAK-His6 (Homo sapiens, UniProt Q16611); assay: Surface plasmon resonance; type: binding; settings: 20 °C; for Kd: MEAS-BAK-His6 captured on Ni-NTA HisCap chip, three-fold peptide dilution series injected in triplicate, read-out: SPR KD
T2 construct: C-terminus truncated recombinant human BAK containing C-terminal 6× histidine tag (MEAS-BAK); made in house; host or cells: E. coli T7 Express pLac I/Y
T2 sequence (Q16611 1-186 limits assumed): T1 sequence (Q16611 1-186 D83A limits assumed) with A83D
Description: We conducted SPR experiments at 20 °C using a Pioneer FE optical biosensor (ForteBio) amd histidine-tagged MEAS-BAK-His6 immobilized on polycarboxylate hydrogel-coated gold chips preimmobilized with nitrilotriacetic acid (HisCap chips; ForteBio). We primed the chip in chelating buffer (10 mM HEPES pH 7.4, 150 mM NaCl, 50 µM EDTA, 0.005% Tween20) and preconditioned it at 10 µL/min with three 60 s injections of wash buffer (10 mM HEPES pH 8.3, 150 mM NaCl, 350 mM EDTA, 0.05% Tween20) and one 60 s injection of chelating buffer before charging with a 60 s injection of 500 µM NiCl2 in chelating buffer. After priming into binding buffer (20 mM HEPES pH 8.0, 200 mM NaCl, 1 mM TCEP, 0.01% Tween20), we injected BAK to achieve ~500 RU of captured protein. As reference cell, we charged one flow cell on the chip with Ni^2+ without adding protein. […] We included a series of buffer-only (blank) injections throughout the experiment to account for instrumental noise. […] We processed, double-referenced, solvent corrected, and analyzed the data using the software package Qdat (version 4.3.1.2, ForteBio). We determined kinetic rate constants and affinities by fitting the data to a 1:1 interaction model.

I81R BAK = molecular target: T3, I81R BAK (Homo sapiens, UniProt Q16611, I81R); assay: Isothermal titration calorimetry with mutant BAK; type: binding; settings: KD could not be obtained by ITC or SPR
T3 construct: To generate tevBAK (residues 22–186), we cleaved off the histidine tag with TEV protease; His tag (vector pNIC28-Bsa4) (N, cleaved yes); made in house; host or cells: E. coli T7 Express pLac I/Y
T3 sequence (Q16611 22-186 I81R): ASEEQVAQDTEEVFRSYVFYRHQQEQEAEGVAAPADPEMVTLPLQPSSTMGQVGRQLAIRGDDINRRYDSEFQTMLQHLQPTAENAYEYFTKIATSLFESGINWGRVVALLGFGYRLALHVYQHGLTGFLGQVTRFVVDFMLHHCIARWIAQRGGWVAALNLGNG
Description: Protein samples were exchanged into 20 mM HEPES, 100 mM NaCl and 1 mM TCEP prior to the experiment. Titrations were performed by first injecting 0.5 μl of 250 or 500 µM BID BH3 peptides into a solution of 20 or 50 µM BAK followed by additional 2 μl injections. […] Results were analyzed using Origin software (OriginLab) provided by MicroCal. Binding constants (KD) and thermodynamic parameters were calculated from the average of two or three individual titrations by fitting the data to a single site binding model using a nonlinear least-squares fitting algorithm.

SMILES	liposome permeabilization by 50 nM D83A(s) BAK receptor (D83A(s) BAK)	EC50 (D83A(s) BAK)	Kd (MEAS-BAK-His6; 1:1 interaction model) [µM]	affinity for I81R BAK extrapolated by applying 2-fold difference compared to WT (I81R BAK)	SPR kd (MEAS-BAK-His6; 1:1 interaction model)	kon (MEAS-BAK-His6; 1:1 interaction model, read-out: SPR ka) [M⁻¹ s⁻¹]	SPR Rmax (MEAS-BAK-His6; ~500 RU captured BAK) [RU]
CC[C@H](C)[C@H](NC(=O)[C@H](C)NC(=O)[C@H](CC(C)C)NC(=O)[C@H](CCC(N)=O)NC(=O)[C@H](CCCNC(=N)N)NC(=O)CNC(=O)[C@@H](NC(=O)[C@H](CCC(N)=O)NC(=O)CNC(=O)[C@H](CCSC)NC(=O)[C@@H](NC(=O)[C@H](CO)NC(=O)[C@H](CO)NC(C)=O)[C@@H](C)O)C(C)C)C(=O)N[C@H](C(=O)NCC(=O)N[C@@H](CC(=O)O)C(=O)N[C@@H](CC(=O)O)C(=O)N[C@H](C(=O)N[C@@H](CC(N)=O)C(=O)N[C@@H](CCCNC(=N)N)C(=O)N[C@@H](CCCNC(=N)N)C(=O)N[C@@H](Cc1ccc(O)cc1)C(N)=O)[C@@H](C)CC)[C@@H](C)CC [WT BAK BH3]	neither peptide ligands could promote liposome permeabilization	4 to 7 µM and 5 to 7 µM	67	~ 130 µM			
CC[C@H](C)[C@H](NC(=O)[C@H](CO)NC(=O)[C@H](CCCNC(=N)N)NC(=O)[C@H](CC(=O)O)NC(=O)[C@H](CCSC)NC(=O)[C@H](CO)NC(=O)[C@H](CC(=O)O)NC(=O)CNC(=O)[C@@H](NC(=O)[C@H](CCC(N)=O)NC(=O)[C@H](C)NC(=O)[C@H](CC(C)C)NC(=O)[C@H](Cc1c[nH]cn1)NC(=O)[C@H](CCCNC(=N)N)NC(=O)[C@H](C)NC(=O)[C@@H](NC(=O)[C@H](CC(N)=O)NC(=O)[C@H](CCCNC(=N)N)NC(=O)[C@@H](NC(=O)[C@@H](NC(=O)[C@H](CC(=O)O)NC(=O)[C@H](CCC(=O)O)NC(C)=O)[C@@H](C)CC)[C@@H](C)CC)[C@@H](C)CC)C(C)C)C(N)=O [WT BID BH3, reference compound]	neither peptide ligands could promote liposome permeabilization	4 to 7 µM and 5 to 7 µM	62.3 ± 0.4	~ 130 µM	2.61±0.01 ×10-1 s-1	4190 ± 20	26.2±0.1
